Calls of active or inactive are those of the source. The calls are words filed in the database; no cut-off is given here.
Tests used:
U-87MG ATCC [1] = test: Downregulation of TUBA1A gene expression in human U87 cells by transcriptome analysis; assay type: functional, cell-based
U-87 MG [2] = test: Induction of apoptosis in human U87 cells assessed as early apoptotic cells at 1.25 uM incubated for 48 hrs by Annexin V-FITC/PI staining based flow cytometry analysis (reference value: 6.25%); assay type: functional, U-87MG ATCC
U-87MG ATCC [3] = test: Downregulation of TUBB gene expression in human U87 cells by transcriptome analysis; assay type: functional, cell-based
U-87 MG [4] = test: Induction of apoptosis in human U87 cells assessed as late apoptotic cells at 1.25 uM incubated for 48 hrs by Annexin V-FITC/PI staining based flow cytometry analysis (reference value: 2.08%); assay type: functional, U-87MG ATCC
U-87 MG [5] = test: Induction of apoptosis in human U87 cells assessed as late apoptotic cells at 2.5 uM incubated for 48 hrs by Annexin V-FITC/PI staining based flow cytometry analysis (reference value: 2.08%); assay type: functional, U-87MG ATCC
U-87MG ATCC [6] = test: Upregulation of CORO1A gene expression in human U87 cells by transcriptome analysis; assay type: functional, cell-based
U-87 MG [7] = test: Induction of apoptosis in human U87 cells assessed as early apoptotic cells at 0.625 uM incubated for 48 hrs by Annexin V-FITC/PI staining based flow cytometry analysis (reference value: 6.25%); assay type: functional, U-87MG ATCC
[8] = Cytotoxicity against HUVEC cells assessed as inhibition of cell growth inhibition incubated for 48 hrs by CCK-8 assay; assay type: toxicity, cell-based; settings: human
U-87 MG [9] = test: Induction of apoptosis in human U87 cells assessed as dead cells at 1.25 uM incubated for 48 hrs by Annexin V-FITC/PI staining based flow cytometry analysis (reference value: 0.013%); assay type: functional, U-87MG ATCC
Tubulin (Homo sapiens) [10] = biological target: T1, Tubulin (Homo sapiens) (UniProt P68371+Q9H4B7+P0DPH7+P68366+Q13509+Q71U36+P04350+Q3ZCM7+P07437+P68363+Q9BQE3+Q6PEY2+Q13885+Q9BVA1+Q9BUF5); test: Inhibition of tubulin (unknown origin) polymerization assessed as reduction in polymerization rate by fluorescence based analysis; assay type: protein-complex assay; settings: dose 6-12 µM
U-87 MG [11] = test: Induction of apoptosis in human U87 cells assessed as live cells at 0.625 uM incubated for 48 hrs by Annexin V-FITC/PI staining based flow cytometry analysis (reference value: 91.7%); assay type: functional, U-87MG ATCC
U-87MG ATCC [12] = test: Upregulation of NECTIN4 gene expression in human U87 cells by transcriptome analysis; assay type: functional, cell-based
P-gp = test: Substrate activity at P-gp in MDCK-MDR1 cells assessed as efflux ratio of apparent permeability across basolateral to apical side over apical to basolateral side at 10 uM incubated for 90 mins by LC-MS/MS analysis; assay type: ADME, cell-based, Canis lupus familiaris; settings: dog
U-87 MG [13] = test: Induction of apoptosis in human U87 cells assessed as dead cells at 2.5 uM incubated for 48 hrs by Annexin V-FITC/PI staining based flow cytometry analysis (reference value: 0.013%); assay type: functional, U-87MG ATCC
U-87 MG [14] = test: Induction of apoptosis in human U87 cells assessed as live cells at 0.3125 uM incubated for 48 hrs by Annexin V-FITC/PI staining based flow cytometry analysis (reference value: 91.7%); assay type: functional, U-87MG ATCC
[15] = Toxicity in C57BL/6 mouse implanted with mouse GL261-Luc cells assessed as histopathological changes in spleen at 5 to 10 mg/kg, iv administered every other day on day 0,2,4,6,8,10 and measured after 12 days by H and E staining based analysis; assay type: organism-based; settings: in vivo, 288 h, dose 5-10 mg/kg, time 12 day
GL261-Luc = test: Antitumor activity against mouse GL261-Luc cells implanted in C57BL/6 mouse assessed as reduction in tumor cell growth at 10 mg/kg, iv administered every other day on day 0,2,4,6,8,10 and measured after 12 days by H and E staining based analysis; assay type: functional, organism-based; settings: time 12.0 day
U-87 MG [16] = test: Induction of apoptosis in human U87 cells assessed as live cells at 2.5 uM incubated for 48 hrs by Annexin V-FITC/PI staining based flow cytometry analysis (reference value: 91.7%); assay type: functional, U-87MG ATCC
U-87 MG [17] = test: Induction of cell cycle arrest in human U87 cells assessed as accumulation of cells at […] at 1 uM measured after 48 hrs by PI staining based flow cytometry analysis (reference value: 8.55%); assay type: functional, U-87MG ATCC
[18] = Toxicity in C57BL/6 mouse implanted with mouse GL261-Luc cells assessed as histopathological changes in liver at 5 to 10 mg/kg, iv administered every other day on day 0,2,4,6,8,10 and measured after 12 days by H and E staining based analysis; assay type: organism-based; settings: in vivo, 288 h, dose 5-10 mg/kg, time 12 day
U-87 MG [19] = test: Induction of apoptosis in human U87 cells assessed as late apoptotic cells at 0.625 uM incubated for 48 hrs by Annexin V-FITC/PI staining based flow cytometry analysis (reference value: 2.08%); assay type: functional, U-87MG ATCC
U-87MG ATCC [20] = test: Upregulation of CGNL1 gene expression in human U87 cells by transcriptome analysis; assay type: functional, cell-based
A549 = test: Antiproliferative activity against human A549 cells assessed as inhibition of cell growth inhibition incubated for 48 hrs by CCK-8 assay; assay type: functional, cell-based; settings: A549, 48 h
U-87 MG [21] = test: Inhibition of cell migration in human U87 cells assessed as reduction in wound healing measured after 24 to 48 hrs by scratch assay; assay type: functional, cell-based; settings: U-87MG ATCC, dose 0-1 µM, time 24-48 hrs
U-87 MG [22] = test: Induction of cell cycle arrest in human U87 cells assessed as accumulation of cells at G1 phase at 2 uM measured after 48 hrs by PI staining based flow cytometry analysis (reference value: 72.6%); assay type: functional, U-87MG ATCC
U-87MG ATCC [23] = test: Downregulation of TUBB4B gene expression in human U87 cells by transcriptome analysis; assay type: functional, cell-based
Tubulin (Homo sapiens) [24] = biological target: T1, Tubulin (Homo sapiens); test: Binding affinity to colchicine binding site of tubulin in human U87 cells assessed as inhibition of EBI-tubulin adduct formation by measuring disappearance of adduct bands pretreated for 2 hrs followed by EBI addition and measured after 2 hrs by Western blot analysis; assay type: cell-based; settings: dose 10-100 µM, time 4.0 hrs
U-87 MG [25] = test: Induction of apoptosis in human U87 cells assessed as live cells at 1.25 uM incubated for 48 hrs by Annexin V-FITC/PI staining based flow cytometry analysis (reference value: 91.7%); assay type: functional, U-87MG ATCC
[26] = Toxicity in C57BL/6 mouse implanted with mouse GL261-Luc cells assessed as histopathological changes in lung at 5 to 10 mg/kg, iv administered every other day on day 0,2,4,6,8,10 and measured after 12 days by H and E staining based analysis; assay type: organism-based; settings: in vivo, 288 h, dose 5-10 mg/kg, time 12 day
Tubulin (Homo sapiens) [27] = biological target: T1, Tubulin (Homo sapiens); test: Inhibition of tubulin (unknown origin) polymerization assessed as reduction in steady state content of tubulins at 6 to 12 uM by fluorescence based analysis; assay type: protein-complex assay; settings: dose 6-12 µM
U-87 MG [28] = test: Induction of apoptosis in human U87 cells assessed as dead cells at 0.625 uM incubated for 48 hrs by Annexin V-FITC/PI staining based flow cytometry analysis (reference value: 0.013%); assay type: functional, U-87MG ATCC
[29] = Toxicity in C57BL/6 mouse implanted with mouse GL261-Luc cells assessed as histopathological changes in heart at 5 to 10 mg/kg, iv administered every other day on day 0,2,4,6,8,10 and measured after 12 days by H and E staining based analysis; assay type: organism-based; settings: in vivo, 288 h, dose 5-10 mg/kg, time 12 day
U-87 MG [30] = test: Induction of cell cycle arrest in human U87 cells assessed as accumulation of cells at G1 phase at 0.5 uM measured after 48 hrs by PI staining based flow cytometry analysis (reference value: 72.6%); assay type: functional, U-87MG ATCC

In the case of `Cc1ccc2ccc3c(c2n1)OC(N)=C(C#N)C3c1ccccc1` (stereo not drawn), the Activity (U-87MG ATCC [1]) is reported as “Active”, the Activity (U-87 MG [2]) is reported as 21.2% and the Activity (U-87MG ATCC [3]) is reported as “Active”. The Activity (U-87 MG [4]) was 7.82%, the Activity (U-87 MG [5]) was 16.8% and the Activity (U-87MG ATCC [6]) was “Active”. The Activity (U-87 MG [7]) was 16.1%, the IC50 at 48 h [8] was > 10000 nM and the Activity (U-87 MG [9]) was 0.027%. For the same compound, the inhibition (Tubulin (Homo sapiens) [10]) was “Dose-Dependent Effect”, the Activity (U-87 MG [11]) was 75.9% and the Activity (U-87MG ATCC [12]) was “Active”. For the same compound, the efflux ratio at 1.5 h, 10 µM (P-gp) was 0.76, the Activity (U-87 MG [13]) was 0.1% and the Activity (U-87 MG [14]) was 88.1%. The Activity [15] was “Non-Toxic”, the Activity (GL261-Luc) was “Active” and the Activity (U-87 MG [16]) was 62.5%. For the same compound, the Activity (U-87 MG [17]) was 24.6%, the Activity [18] was “Non-Toxic” and the Activity (U-87 MG [19]) was 7.88%. For the same compound, the Activity (U-87MG ATCC [20]) was “Active”, the IC50 (A549) was 880 nM and the inhibition (U-87 MG [21]) was “Dose-Dependent Effect”. The Activity (U-87 MG [22]) was 14.4%, the Activity (U-87MG ATCC [23]) was “Active” and the Activity (Tubulin (Homo sapiens) [24]) was “Dose-Dependent Effect”. The Activity (U-87 MG [25]) was 73.9%, the Activity [26] was “Non-Toxic” and the inhibition (Tubulin (Homo sapiens) [27]) was “Active”. For the same compound, the Activity (U-87 MG [28]) was 0.1%, the Activity [29] was “Non-Toxic” and the Activity (U-87 MG [30]) was 72%.

Reference: ChEMBL document CHEMBL5543095 (Eur J Med Chem, 2024)
